Reference: patent publication US20250154525A1, “PLANT VIRUS MOVEMENT PROTEINS AND METHODS OF USING SAME” (Molecular Transfer, Inc., priority 2016, published 2025)

Columns and labels:
HeLa Cells [1] = experiment: GFP plasmid transfection with DOTMA/DOPE plus plant virus movement protein derived peptides (Example 2); assay type: cell-based; conditions: 1-6 μL of transfection reagents
Experimental: (§1) Cells were plated to so that on the day of transfection the cells were 70% confluent in 96 well tissue culture plates. A DOMTA/DOPE Lipid solution (1:1 molar ratio) at 2 mg/mL in water were mixed with an equal volume of plant virus movement protein derived peptides that had the nucleic acid binding moiety RRRRRRRRRRRR (SEQ ID NO:109) or KKKKKKKKKKKKKKKK (SEQ ID NO: 102) covalently linked to the N-terminus, or C-terminus of each peptide during peptide synthesis. Peptides were at 2 mg/mL in water. The DOTMA/DOPE and the plant virus movement peptide solution the was diluted 1 to 1 (v/v) in water. DOMTA/DOPE/PEPTIDE solutions were added to 0.1 mL of a plasmid DNA solution (EF1Alpha eGFP plasmid) at 10 μg/mL in OptiMEM.
(§2) All solutions were at room temperature. A volume of 0.2 mL of a 10 μg/mL solution of DNA was aliquoted into each well of a non-tissue cultured treated plate. 1-6 μL of transfection reagents were added to DNA solutions respectively. The transfection reagent and DNA solution was mixed by pipetting up and down twice. Transfection complexes were formed for 10 minutes. After 10 minutes, 0.01 or 0.02 mL of the transfection complex was added to cells. HuVEC, HeLa, human adult keratinocytes, human primary adult fibroblast, and A549 cells all respectively received 0.01 mL of the transfection complex. Human skeletal muscle cells, mouse C2C12 cells, and Jurkat, cells received 0.02 mL of the transfection complex. Cells were incubated for 42 hours at 37° C. at 5% CO2. Plates were read on a fluorescent plate reader. Cells were also examined visually under a microscope to assess the extent of transfection (in terms of the percent of cells transfected) with a fluorescent microscope. Other modes of analysis, for example quantification with B-galactosidase or luciferase reports plasmids can also be used.

HuVec Cells [2] = experiment: as above; assay type: cell-based; conditions: 42 hours
Experimental: as §1, §2

[3] = tested on: Human Primary Fibroblast Cells; experiment: as above; assay type: cell-based; conditions: 42 hours
Experimental: as §1, §2

C2C12 Cells = experiment: GFP plasmid transfection with DOTMA/DOPE plus surface ligand peptide, fluorescent plate reader (Example 1); assay type: cell-based, mouse; conditions: DOTMA/DOPE + peptide linked to R12 or K16; EF1Alpha eGFP plasmid; 42 hours
Method in brief: (§3)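 DOTMA/DOPE (1:1 molar) plus peptide bearing a poly-Arg or poly-Lys tag was complexed 10 min with EF1alpha eGFP plasmid in OptiMEM, then added to 70%-confluent cells (0.01 mL fibroblasts; 0.02 mL C2C12, Jurkat). After 42 h at 37 °C, GFP was read by plate reader and compared with DOTMA without ligand.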

Human Fibroblast Cells = experiment: as above; assay type: cell-based; conditions: DOTMA/DOPE + peptide linked to R12 or K16; EF1Alpha eGFP plasmid; 42 hours
Method in brief: as §3

Jurkat Cells = experiment: as above; assay type: cell-based; conditions: DOTMA/DOPE + peptide linked to R12 or K16; EF1Alpha eGFP plasmid; 42 hours
Method in brief: as §3

HeLa Cells [4] = experiment: as above; assay type: cell-based; conditions: DOTMA/DOPE + peptide linked to R12 or K16; EF1Alpha eGFP plasmid; 42 hours
NL-1 iPS Cells = experiment: as above; assay type: cell-based; conditions: DOTMA/DOPE + peptide linked to R12 or K16; EF1Alpha eGFP plasmid; 42 hours
HuVec Cells [5] = experiment: as above; assay type: cell-based; conditions: DOTMA/DOPE + peptide linked to R12 or K16; EF1Alpha eGFP plasmid; 42 hours
Method in brief: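 HuVEC cells in 96 well plates at 70% confluence were transfected with EF1Alpha eGFP plasmid using a 1:1 molar DOTMA/DOPE lipid mixed with a surface ligand peptide carrying a covalently attached nucleic acid binding moiety. Complexes formed for 10 minutes, 0.01 mL went to each well, cells were incubated 42 hours at 37° C., and fluorescence was read on a plate reader.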

[6] = value column 1 of 6, head not given, 1 µL transfection reagent
[7] = value column 3 of 6, head not given, 3 µL transfection reagent
[8] = value column 4 of 6, head not given, 4 µL transfection reagent

Compound	Relative Fluorescence of Transfection of Hela Cells (HeLa Cells [1]; 2 µL transfection reagent)	Relative Fluorescence of Transfection of Hela Cells (HeLa Cells [1]; 5 µL transfection reagent)	Relative Fluorescence of Transfection of Hela Cells (HeLa Cells [1]; [6])	Relative Fluorescence of Transfection of Hela Cells (HeLa Cells [1]; [7])	Relative Fluorescence of Transfection of Hela Cells (HeLa Cells [1]; [8])	Relative Fluorescence of Transfection of HuVEC Cells (HuVec Cells [2]; Transfection Agent 1 μl)	Relative Fluorescence of Transfection of HuVEC Cells (HuVec Cells [2]; Transfection Agent 1.5 μl)	Relative Fluorescence of Transfection of HuVEC Cells (HuVec Cells [2]; Transfection Agent 2 μl)	Relative Fluorescence of Transfection of HuVEC Cells (HuVec Cells [2]; Transfection Agent 3 μl)	Relative Fluorescence of Transfection of HuVEC Cells (HuVec Cells [2]; Transfection Agent 4 μl)	Relative Fluorescence of Transfection of HuVEC Cells (HuVec Cells [2]; Transfection Agent 6 μl)	Relative Fluorescence of Transfection of Human Primary Fibroblast Cells ([3]; Transfection Agent 1 μl)	Relative Fluorescence of Transfection of Human Primary Fibroblast Cells ([3]; Transfection Agent 1.5 μl)	Relative Fluorescence of Transfection of Human Primary Fibroblast Cells ([3]; Transfection Agent 2 μl)	Relative Fluorescence of Transfection of Human Primary Fibroblast Cells ([3]; Transfection Agent 3 μl)	Relative Fluorescence of Transfection of Human Primary Fibroblast Cells ([3]; Transfection Agent 4 μl)	Relative Fluorescence of Transfection of Human Primary Fibroblast Cells ([3]; Transfection Agent 6 μl)	other results
546 (RTGVKRSYGAARGDDRRRPNVVRRRRRRRRRRRR) [compound 546]	15022	8117	15190	12772	11535	25990 Rf	32762 Rf	37899 Rf	35528 Rf	31614 Rf	27690 Rf	31980 Rf	39259 Rf	41747 Rf	35020 Rf	32220 Rf	29476 Rf	
542 (KKKKKKKKKKKKKKKKGKWERKPIRCAS) [compound 542]	32901	35631	9010	47293	42152	24827 Rf	33896 Rf	42546 Rf	43231 Rf	35294 Rf	29326 Rf	30818 Rf	43609 Rf	46966 Rf	36343 Rf	33706 Rf	31787 Rf	
544 (GVKRSYGAARGDDRRRPNVVAPYKAWRRRRRRRRRRRR) [compound 544]	19151	12759	10683	19877	16908	25788 Rf	28622 Rf	31245 Rf	34718 Rf	31159 Rf	28639 Rf	31368 Rf	39311 Rf	37634 Rf	32892 Rf	31428 Rf	28367 Rf	
547 (SYVKTVPNRTRTYIKGGGGGRRRRRRRRRRRR) [compound 547]	9491	8829	5899	10275	11241	24554 Rf	26172 Rf	28255 Rf	32494 Rf	31180 Rf	26775 Rf	29141 Rf	33704 Rf	35175 Rf	35563 Rf	33951 Rf	30539 Rf	
540 (RRRRRRRRRRRRVDYGKWERKPIRCASMSR) [compound 540]	35653	13917	6422	27970	18620	24771 Rf	34062 Rf	44744 Rf	44087 Rf	45137 Rf	30023 Rf	29368 Rf	40610 Rf	35505 Rf	33853 Rf	33063 Rf	30219 Rf	
CCCCCCCC/C=C\CCCCCCCCOCC(C[N+](C)(C)C)OCCCCCCCC/C=C\CCCCCCCC.[Cl-] (stereo not drawn) [DOTMA, N-[1-(2,3-dioleyloxy)propyl]-N,N,N-trimethylammonium chloride, reference compound]	4782	9694	4424	5377	6992													Relative Fluorescence of Transfection of C2C12 Cells (RF) (C2C12 Cells): 1289; Relative Fluorescence of Transfection of Human Fibroblast Cells (RF) (Human Fibroblast Cells): 3397; Relative Fluorescence of Transfection of Jurkat Cells (RF) (Jurkat Cells): 9084; Relative Fluorescence of Transfection of HeLa Cells (RF) (HeLa Cells [4]): 7551; Relative Fluorescence of Transfection of NL-1 iPS Cells (RF) (NL-1 iPS Cells): 8965; Relative Fluorescence of Transfection of HuVec Cells (RF) (HuVec Cells [5]): 12230
